Test results published in ChEMBL document CHEMBL6087440, “Catalytic Lysine745 targeting strategy in fourth-generation EGFR tyrosine kinase inhibitors to address C797S mutation resistance” (Eur J Med Chem, 2025).

Key:
[1] = target: Epidermal growth factor receptor (Homo sapiens, UniProt P00533, C797S/L858R/T790M); experiment: Inhibition of EGFR L858R/T790M/C797S triple mutant (unknown origin)
[2] = target: Epidermal growth factor receptor (Homo sapiens, UniProt P00533, C797S/EX19DEL/T790M); experiment: Inhibition of EGFR del19/T790M/C797S triple mutant (unknown origin) in presence of ATP by FRET assay
Chain of Epidermal growth factor receptor (Homo sapiens, UniProt P00533, C797S/EX19DEL/T790M) (P00533 whole entry, looked up, stated change not applied): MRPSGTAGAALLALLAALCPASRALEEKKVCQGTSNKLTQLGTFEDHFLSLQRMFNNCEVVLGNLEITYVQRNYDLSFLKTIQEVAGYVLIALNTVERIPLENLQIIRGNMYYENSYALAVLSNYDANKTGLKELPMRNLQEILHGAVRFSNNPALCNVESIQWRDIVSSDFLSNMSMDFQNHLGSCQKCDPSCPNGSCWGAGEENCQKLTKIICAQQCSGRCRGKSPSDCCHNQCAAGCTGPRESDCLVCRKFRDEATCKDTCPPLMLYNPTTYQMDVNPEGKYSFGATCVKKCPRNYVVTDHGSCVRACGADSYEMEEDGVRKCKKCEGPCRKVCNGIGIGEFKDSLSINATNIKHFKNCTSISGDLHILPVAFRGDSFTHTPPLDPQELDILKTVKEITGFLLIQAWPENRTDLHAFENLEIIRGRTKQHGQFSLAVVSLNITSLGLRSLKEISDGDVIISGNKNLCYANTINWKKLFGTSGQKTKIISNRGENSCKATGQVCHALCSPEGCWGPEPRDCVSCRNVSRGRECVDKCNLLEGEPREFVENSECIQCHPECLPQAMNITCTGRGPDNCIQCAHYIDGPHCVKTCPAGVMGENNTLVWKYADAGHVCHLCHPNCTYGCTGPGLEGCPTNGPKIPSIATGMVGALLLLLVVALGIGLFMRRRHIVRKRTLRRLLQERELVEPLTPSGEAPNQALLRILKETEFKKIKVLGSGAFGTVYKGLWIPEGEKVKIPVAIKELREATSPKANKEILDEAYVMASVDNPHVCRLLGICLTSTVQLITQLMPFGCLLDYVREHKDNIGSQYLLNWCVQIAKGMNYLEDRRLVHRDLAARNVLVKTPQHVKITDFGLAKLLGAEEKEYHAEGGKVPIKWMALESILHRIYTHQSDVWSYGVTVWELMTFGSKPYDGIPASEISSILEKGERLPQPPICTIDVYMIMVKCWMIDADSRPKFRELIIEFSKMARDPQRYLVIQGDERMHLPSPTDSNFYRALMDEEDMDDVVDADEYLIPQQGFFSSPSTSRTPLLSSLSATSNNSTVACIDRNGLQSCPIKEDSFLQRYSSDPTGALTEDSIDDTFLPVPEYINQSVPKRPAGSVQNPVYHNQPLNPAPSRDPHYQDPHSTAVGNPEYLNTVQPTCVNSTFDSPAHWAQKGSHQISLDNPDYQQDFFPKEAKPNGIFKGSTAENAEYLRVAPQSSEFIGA

[3] = target: Epidermal growth factor receptor (Homo sapiens, UniProt P00533); experiment: Inhibition of wild type EGFR (unknown origin)
Chain of Epidermal growth factor receptor (Homo sapiens, UniProt P00533) (P00533 whole entry): as the sequence (P00533 whole entry, looked up, stated change not applied) above

BaF3 = experiment: Antiproliferative activity against mouse BaF3 cells harboring EGFR L858R/T790M/C797S triple mutant assessed as inhibition of cell growth incubated for 72 hrs by CellTiter-Glo luminescent assay; type: functional, cell-based; conditions: BaF3, 72 h
A549 = experiment: Antiproliferative activity against human A549 cells harboring wild type EGFR assessed as inhibition of cell proliferation incubated for 72 hrs by CCK8 assay; type: functional, cell-based; conditions: A549, 72 h
[4] = Antiproliferative activity against human NCI-H1975 cells harboring EGFR L858R/T790M mutant assessed as cell growth inhibition incubated for 72 hrs by CellTiter Glo assay; type: functional, cell-based; conditions: NCI-H1975, 72 h
[5] = Antiproliferative activity against mouse Ba/F3 EGFR-T790M/C797S/L858R cells; type: functional, cell-based
[6] = Antiproliferative activity against human NCI-H1975 cells harboring EGFR L858R/T790M/C797S mutant assessed as reduction in cell growth incubated for 72 hrs by SRB assay; type: functional, cell-based; conditions: NCI-H1975, 72 h
[7] = Intrinsic clearance in human liver microsomes; type: ADME, Microsome
[8] = target: Tyrosine-protein kinase BTK (Homo sapiens, UniProt Q06187); experiment: Inhibition of wild type BTK (unknown origin) using TK as substrate incubated for 1 hr by HTRF assay
Chain of Tyrosine-protein kinase BTK (Q06187 whole entry): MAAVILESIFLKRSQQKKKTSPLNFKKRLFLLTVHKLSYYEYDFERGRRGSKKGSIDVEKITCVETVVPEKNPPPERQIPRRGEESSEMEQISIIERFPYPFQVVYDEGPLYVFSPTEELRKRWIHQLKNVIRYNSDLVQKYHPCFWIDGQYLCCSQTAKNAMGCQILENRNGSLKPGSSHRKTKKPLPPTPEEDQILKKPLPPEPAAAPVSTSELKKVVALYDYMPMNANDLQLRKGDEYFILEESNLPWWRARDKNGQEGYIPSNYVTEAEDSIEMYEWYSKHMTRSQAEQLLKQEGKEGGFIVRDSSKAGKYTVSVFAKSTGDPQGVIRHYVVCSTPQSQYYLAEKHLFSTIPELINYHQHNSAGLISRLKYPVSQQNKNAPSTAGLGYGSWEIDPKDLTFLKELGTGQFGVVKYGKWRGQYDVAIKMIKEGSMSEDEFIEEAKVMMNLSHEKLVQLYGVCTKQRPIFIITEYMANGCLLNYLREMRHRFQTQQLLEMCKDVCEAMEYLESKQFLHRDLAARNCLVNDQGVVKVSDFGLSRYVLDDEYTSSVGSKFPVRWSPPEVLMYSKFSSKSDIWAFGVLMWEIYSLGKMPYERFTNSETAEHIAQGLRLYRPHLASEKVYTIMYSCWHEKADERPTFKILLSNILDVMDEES

[9] = Clearance in cynomolgus monkey at 1 mg/kg, iv by LC-MS/MS analysis; type: ADME, organism-based, Macaca fascicularis; conditions: in vivo

Chain of Epidermal growth factor receptor (Homo sapiens, UniProt P00533, C797S/L858R/T790M) (P00533 25-1210 T790M/C797S/L858R limits assumed): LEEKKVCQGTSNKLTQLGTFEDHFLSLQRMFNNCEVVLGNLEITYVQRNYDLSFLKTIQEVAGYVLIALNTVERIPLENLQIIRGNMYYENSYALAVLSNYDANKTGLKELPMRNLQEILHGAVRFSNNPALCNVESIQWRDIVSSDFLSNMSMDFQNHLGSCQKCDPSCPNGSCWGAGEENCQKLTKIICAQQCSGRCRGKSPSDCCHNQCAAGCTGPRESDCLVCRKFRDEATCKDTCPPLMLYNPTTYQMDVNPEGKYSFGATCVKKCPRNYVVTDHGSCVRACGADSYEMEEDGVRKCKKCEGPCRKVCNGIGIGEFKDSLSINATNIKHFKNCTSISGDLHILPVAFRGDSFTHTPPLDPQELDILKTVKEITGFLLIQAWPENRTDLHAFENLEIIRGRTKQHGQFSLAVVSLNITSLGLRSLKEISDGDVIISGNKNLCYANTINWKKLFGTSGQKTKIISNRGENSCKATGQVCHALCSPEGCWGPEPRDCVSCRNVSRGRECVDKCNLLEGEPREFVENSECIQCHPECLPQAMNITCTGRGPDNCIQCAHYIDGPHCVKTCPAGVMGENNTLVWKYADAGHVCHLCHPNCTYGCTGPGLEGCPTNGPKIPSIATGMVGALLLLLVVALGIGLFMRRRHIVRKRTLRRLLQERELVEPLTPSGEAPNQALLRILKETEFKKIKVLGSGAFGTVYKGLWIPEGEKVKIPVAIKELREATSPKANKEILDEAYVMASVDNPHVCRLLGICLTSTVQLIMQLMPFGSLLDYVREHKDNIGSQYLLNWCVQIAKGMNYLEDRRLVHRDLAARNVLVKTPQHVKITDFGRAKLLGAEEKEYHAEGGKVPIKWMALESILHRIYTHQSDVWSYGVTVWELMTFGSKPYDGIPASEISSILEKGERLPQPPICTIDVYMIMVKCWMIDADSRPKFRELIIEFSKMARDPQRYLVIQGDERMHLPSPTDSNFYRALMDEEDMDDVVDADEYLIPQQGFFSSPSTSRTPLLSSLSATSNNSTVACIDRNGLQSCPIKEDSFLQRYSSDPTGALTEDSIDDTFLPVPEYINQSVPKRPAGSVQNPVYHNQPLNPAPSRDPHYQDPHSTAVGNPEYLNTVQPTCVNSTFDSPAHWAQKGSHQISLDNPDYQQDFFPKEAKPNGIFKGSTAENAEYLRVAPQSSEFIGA

Row | SMILES | IC50 [2] | IC50 (BaF3) | other results
1 | COc1cc(N2CCC(N(C)C)CC2)c(-c2cn[nH]c2)cc1Nc1ncc(Cl)c(Nc2ccccc2P(C)(C)=O)n1 |  |  | IC50 [1]: 0.5 nM
2 | CCS(=O)(=O)n1cc2c3ccc(cc31)OCCCCCCOc1cc(c(Cl)cc1N1CCOCC1)Nc1ncc(Cl)c-2n1 | 6.2 nM |  | 
3 | COCCCc1nc(-c2ccc(F)cc2)c(-c2ccnc3[nH]c(-c4ccccc4)cc23)[nH]1 |  |  | IC50 [3]: 6 nM; IC50 [1]: 6 nM
4 | CCS(=O)(=O)n1cc2c3cc(ccc31)OCCCCCCOc1cc(ccc1N1CCOCC1)Nc1ncc(Cl)c-2n1 | 6.2 nM |  | 
5 | C=CC(=O)Nc1cc(Nc2ncc(C(=O)OC(C)C)c(-c3cn(C)c4ccccc34)n2)c(OC)cc1N(C)CCN(C)C [MOBOCERTINIB] |  | 271 nM | 
6 | CCS(=O)(=O)n1cc2c3cc(ccc31)OCCCCCCCOc1cc(ccc1N1CCOCC1)Nc1ncc(Cl)c-2n1 | 19 nM |  | 
7 | CC(C)c1cnc(N2CC(CS(C)(=O)=O)C2)c2cnc(Nc3ccnc(N4CCC(O)C(C)(F)C4)n3)cc12 (stereo not given) |  |  | IC50 (A549): 5.29 µM
8 | COc1cc(N2CCC(N)CC2)ccc1Nc1ncc(C(=O)OC(C)C)c(-c2cn(C)c3ccccc23)n1 |  | 354 nM | 
9 | OCCCc1nc(-c2ccc(F)cc2)c(-c2ccnc3[nH]c(-c4ccccc4)cc23)[nH]1 |  |  | IC50 [3]: < 0.5 nM
10 | CCS(=O)(=O)n1cc2c3ccc(cc31)OCCCCCOc1cc(ccc1N1CCOCC1)Nc1ncc(Cl)c-2n1 | 141 nM |  | 
11 | CNC(=O)c1cnc(Nc2ccnc(N3CCC(O)CC3)n2)cc1NC(C)C |  |  | IC50 [4]: 46 nM
12 | CN(C)C1CCN(c2ccc(Nc3ncc(Br)c(Nc4ccccc4NS(=O)(=O)C4CC4)n3)cc2NS(C)(=O)=O)CC1 |  |  | IC50 [5]: 780 nM
13 | CCc1cc(Nc2ncc(Br)c(Nc3ccc4c(c3P(C)(C)=O)OCO4)n2)c(OC)cc1N1CCC(N2CC(N(C)C)C2)CC1 | 0.15 nM | 40 nM | IC50 [1]: 0.4 nM
14 | CCS(=O)(=O)n1cc2c3cc(ccc31)OCCCCCOc1cc(ccc1N1CCOCC1)Nc1ncc(Cl)c-2n1 | 19 nM |  | 
15 | Cc1cc(Nc2ncc(Br)c(Nc3ccccc3NS(=O)(=O)C3CC3)n2)ccc1N1CCCN(C)CC1 |  |  | IC50 [3]: 70.7 nM
16 | COc1cc(N2CCN(C)CC2)ccc1Nc1ncc(C(=O)Oc2ccccc2)c(-c2cn(C)c3ccccc23)n1 |  | 94 nM | IC50 [3]: 0.05 nM
17 | CCc1cc(Nc2ncc(Br)c(Nc3ccc4c(c3P(C)(C)=O)OCCO4)n2)c(OC)cc1N1CCC(N2CC(N(C)C)C2)CC1 | 0.08 nM | 8 nM | 
18 | COC1CCN(c2nccc(Nc3cc4c(C(C)C)ccc(N5CC(CS(C)(=O)=O)C5C)c4cn3)n2)CC1F (stereo not given) |  |  | IC50 [6]: 1.1 nM; CLH [7]: 89 µL/min/mg

Row | SMILES | IC50 [2] | IC50 (BaF3) | other results
19 | CCS(=O)(=O)n1cc2c3cc(ccc31)OCCCCOc1cc(ccc1N1CCOCC1)Nc1ncc(Cl)c-2n1 | > 1000 nM |  | 
20 | CCS(=O)(=O)n1cc2c3ccc(cc31)OCCCCCCOc1cc(c(C3CC3)cc1N1CCOCC1)Nc1ncc(Cl)c-2n1 | 56.4 nM |  | 
21 | CC(C)c1cnc(N2CC(O)C2C)c2cnc(Nc3ccnc(N4CCC(O)C(C)(F)C4)n3)cc12 (stereo not given) |  |  | IC50 [4]: 20 nM
22 | C=CC(=O)Nc1ccc(OC)c(Nc2cc(-c3[nH]c(SCCOC)nc3-c3ccc(F)cc3)ccn2)c1 |  |  | IC50 [1]: 35 nM
23 | CNc1ncc(C(C)C)c2cc(Nc3ccnc(N4CCC(O)C(F)C4)n3)ncc12 (stereo not given) |  |  | IC50 [4]: 12 nM
24 | COc1cc(N2CCN(C(C)=O)CC2)ccc1Nc1nccc(Nc2ccc(Nc3ccc(S(=O)(=O)F)cc3)cc2)n1 |  |  | IC50 [3]: 210 nM; IC50 [1]: 110 nM
25 | CCS(=O)(=O)n1cc2c3ccc(cc31)OCCCCCCOc1cc(ccc1N1CCOCC1)Nc1ncc(Cl)c-2n1 | 57 nM |  | 
26 | Cc1cc(Nc2ncc(Cl)c(Nc3ccccc3NS(=O)(=O)C3CC3)n2)ccc1N1CCC(N(C)C)CC1 |  |  | IC50 [3]: 4.76 nM; IC50 [1]: 0.03 nM
27 | CCS(=O)(=O)n1cc2c3cc(ccc31)OCCCCCCCCOc1cc(ccc1N1CCOCC1)Nc1ncc(Cl)c-2n1 | 89 nM |  | 
28 | COc1cc(N2CCC(N(C)C)CC2)ccc1Nc1ncc(C(=O)Oc2ccccc2)c(-c2c[nH]c3ccccc23)n1 |  | 7.1 nM | IC50 [3]: 0.01 nM
29 | CCS(=O)(=O)n1cc2c3ccc(cc31)OCCCCCCOc1cc(c(C)cc1N1CCOCC1)Nc1ncc(Cl)c-2n1 | 23.6 nM |  | 
30 | CN1CCN(C2CCN(c3ccc(Nc4ncc(Cl)c(Nc5ccccc5P(C)(C)=O)n4)cc3Cl)CC2)CC1 |  |  | IC50 [1]: 0.7 nM
31 | C=CC(=O)Nc1ccc(OC)c(Nc2cc(-c3[nH]c(CCCO)nc3-c3ccc(F)cc3)ccn2)c1 |  |  | IC50 [3]: 8 nM
32 | CC(C)c1cnc(N2CCC2)c2cnc(Nc3ccnc(N4CCC(O)C(C)(F)C4)n3)cc12 (stereo not given) |  |  | IC50 [4]: 9.1 nM
33 | COc1cc(N2CCN(C)CC2)ccc1Nc1ncc(C(=O)OC(C)C)c(-c2cn(C)c3ccccc23)n1 |  | 615 nM | 
34 | CC(C)c1ccc(N2CC(CS(C)(=O)=O)C2C)c2cnc(Nc3ccnc(N4CCC(O)C(C)(F)C4)n3)cc12 (stereo not given) |  |  | clearance [9]: 31.8 mL/min/kg
35 | Cc1cc(Nc2ncc(Cl)c(Nc3ccccc3P(C)(C)=O)n2)ccc1N1CCC(N2CCN(C)CC2)CC1 |  |  | IC50 [1]: 0.6 nM

Second part, led by results:

Row | IC50 [2] | IC50 (BaF3) | SMILES | other results
36 |  | 18.7 nM | COc1cc(N2CCC(N3CC(F)(CO)C3)CC2)c(C)cc1Nc1ncc(Br)c(Nc2ccc3nccnc3c2P(C)(C)=O)n1 | 
37 |  | 17.7 nM | COc1cc(N2CCC(N3CC(C)(CO)C3)CC2)c(C)cc1Nc1ncc(Br)c(Nc2ccc3nccnc3c2P(C)(C)=O)n1 | 
38 | 33.3 nM |  | COc1cc(N2CCC(N3CCN(C)CC3)CC2)ccc1Nc1ncc(Cl)c(-c2cn(S(=O)(=O)C(C)C)c3ccccc23)n1 | IC50 [1]: 222 nM
39 |  | 29 nM | CCOC1CN(C2CCN(c3cc(OC)c(Nc4ncc(Br)c(Nc5ccc6nccnc6c5P(C)(C)=O)n4)cc3C)CC2)C1 | 
40 |  | 22.3 nM | COCC1(C)CN(C2CCN(c3cc(OC)c(Nc4ncc(Br)c(Nc5ccc6nccnc6c5P(C)(C)=O)n4)cc3C)CC2)C1 | 
41 | 0.19 nM |  | COc1cc(N2CCC(N(C)C)CC2)c(-c2cnn(C)c2)cc1Nc1ncc(Cl)c(Nc2ccccc2P(C)(C)=O)n1 | 
42 |  | 14 nM | CCOC1CN(C2CCN(c3cc(OC)c(Nc4ncc(Br)c(Nc5ccc6c(c5P(C)(C)=O)OCCO6)n4)cc3C)CC2)C1 | 
43 | 0.32 nM |  | COc1cc(N2CCC(N3CCN(C)CC3)CC2)c(-c2cnn(C)c2)cc1Nc1ncc(Cl)c(Nc2ccccc2P(C)(C)=O)n1 | 
44 | 24.2 nM |  | CCS(=O)(=O)n1cc(-c2nc(Nc3cc(Cl)c(N4CCC(N5CCN(C)CC5)CC4)cc3OC)ncc2Cl)c2ccccc21 | IC50 [1]: 145 nM
45 |  | 41 nM | COc1cc(N2CCC(N3CC(CO)C3)CC2)c(C)cc1Nc1ncc(Br)c(Nc2ccc3nccnc3c2P(C)(C)=O)n1 | 
46 | 0.7 nM | 15 nM | COCC1CN(C2CCN(c3cc(OC)c(Nc4ncc(Br)c(Nc5ccc6nccnc6c5P(C)(C)=O)n4)cc3C)CC2)C1 | 
47 |  | 18 nM | COc1cc(N2CCC(N3CC(C(C)(C)O)C3)CC2)c(C)cc1Nc1ncc(Br)c(Nc2ccc3nccnc3c2P(C)(C)=O)n1 | 
48 | 0.23 nM |  | COc1cc(N2CCN(C)CC2)c(-c2cn[nH]c2)cc1Nc1ncc(Cl)c(Nc2ccccc2P(C)(C)=O)n1 | 
49 |  | 12.7 nM | COc1cc(N2CCC(N3CC(N(C)C)C3)CC2)c(C)cc1Nc1ncc(Br)c(Nc2ccc3nccnc3c2P(C)(C)=O)n1 | 
50 | 25.6 nM |  | COc1cc(N2CCC(N3CCN(C)CC3)CC2)ccc1Nc1ncc(Cl)c(-c2cn(S(=O)(=O)C3CC3)c3ccccc23)n1 | IC50 [1]: 4.3 nM
51 |  | 5.6 nM | CN1CCCN(c2ccc(Nc3ncc(Br)c(Nc4ccccc4NS(=O)(=O)C4CC4)n3)cc2)CC1 | IC50 [3]: 0.61 nM
52 | 0.2 nM |  | CCP(=O)(CC)c1ccccc1Nc1nc(Nc2cc(-c3cnn(C)c3)c(N3CCOCC3)cc2OC)ncc1Cl | 
53 |  | 12.7 nM | COc1cc(N2CCC(N3CC(CC#N)C3)CC2)c(C)cc1Nc1ncc(Br)c(Nc2ccc3nccnc3c2P(C)(C)=O)n1 | 
54 | 0.2 nM |  | COc1cc(N2CCOCC2)c(-c2cnn(C)c2)cc1Nc1ncc(Cl)c(Nc2ccccc2P(C)(C)=O)n1 | IC50 [8]: 4.4 nM; IC50 [6]: 0.122 nM
